# Assay results from ChEMBL document CHEMBL1125606, “Synthesis and binding of [125I2]philanthotoxin-343, [125I2]philanthotoxin-343-lysine, and [125I2]philanthotoxin-343-arginine to rat brain membranes” (J Med Chem, 1991).
# Organism: Rattus norvegicus
# Assay: Percent control measured by evaluating the inhibition of 3 nM [125I]PhTX-343-lysine binding to glutamate receptors in rat cortical membranes
# Assay type: cell membranes
# Parameters: scale not given: the % may be the effect or the level left
# Conditions: Membrane
row,SMILES,Activity [%]
1,O=[N+]([O-])c1cc2nc(O)c(O)nc2cc1[N+](=O)[O-],102
2,C=C(C)[C@H]1CN[C@H](C(=O)O)[C@H]1CC(=O)O,103
3,CCCC(=O)N[C@@H](Cc1ccc(O)cc1)C(=O)NCCCCNCCCNCCCN,32.7
4,N[C@@H](Cn1oc(=O)[nH]c1=O)C(=O)O,104
5,c1ccc(C2(N3CCCCC3)CCCCC2)cc1,81
6,CNC(CCC(=O)O)C(=O)O (stereo unspecified),96
7,NCCCNCCCCNCCCN,14.4
8,C[C@]12N[C@H](Cc3ccccc31)c1ccccc12,92
9,NCC(=O)O,109
10,N[C@@H](CCC(=O)O)C(=O)O,99
11,NC(CCCP(=O)(O)O)C(=O)O (stereo unspecified),94
